# Laboratory results published in ChEMBL document CHEMBL1212711, “Mechanistic and functional insights into fatty acid activation in Mycobacterium tuberculosis” (Nat Chem Biol, 2009).
# Active and inactive are the calls of the source. The rule behind the calls is not given here.
# Key:
# [1] = system: Mycobacterium tuberculosis H37Rv; assay: Activity at Mycobacterium tuberculosis H37Rv FACL19 i mutant containing FAAL28 (342-372) residues instead of FACL6 (362-376) residues assessed as acy-CoA formation by radio-TLC assay
# [2] = system: Mycobacterium tuberculosis H37Rv; assay: Activity at Mycobacterium tuberculosis H37Rv FACL19 AS mutant containing 15 amino acid stretch of alanine and serine residues assessed as acy-CoA formation by radio-TLC assay
# [3] = system: Mycobacterium tuberculosis H37Rv; assay: Activity at Mycobacterium tuberculosis H37Rv FAAL28 deletion mutant assessed as conversion of lauroyl-AMP to lauryl-CoA by radio-TLC assay
# [4] = system: Mycobacterium tuberculosis H37Rv; assay: Selectivity of Mycobacterium tuberculosis H37Rv FAAL28 deletion mutant over wild type FACL1
smiles,measurement,setting,value
CC(C)(COP(=O)(O)OP(=O)(O)OC[C@H]1O[C@@H](n2cnc3c(N)ncnc32)[C@H](O)[C@@H]1OP(=O)(O)O)[C@@H](O)C(=O)NCCC(=O)NCCS [COENZYME_A],Activity,[1],inactive
same,Activity,[2],inactive
same,kcat,[3],19500 s⁻¹
same,fold change (FC),[4],10
